Results from patent US20250228239A1, “MOLECULES HAVING PESTICIDAL UTILITY, AND INTERMEDIATES, COMPOSITIONS, AND PROCESSES, RELATED THERETO” (priority 2024, published 2025).
Like-named read-outs stand apart in the source and are kept apart here.

How the values were obtained:
Type in all cases: in vivo
[1] = system: Beet Armyworm (Spodoptera exigua, LAPHEG); assay: Bioassays on Beet Armyworm (BAW), 128-well diet tray assay; settings: Spodoptera exigua
Procedure, shortened: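 Diet-overlay assay: 50 μg/cm^2 compound applied in 90:10 acetone-water to artificial diet, allowed to dry, then infested with 1–5 L2 larvae/well; 8 wells/compound; covered, vented; 25° C., 14:10 L:D, 5–7 d; % mortality per well, averaged.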

[2] = system: Cabbage Looper (Trichoplusia ni, TRIPNI); assay: Bioassays on Cabbage Looper (CL), 128-well diet tray assay; settings: Trichoplusia ni
Procedure, shortened: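 Diet tray, 2nd instar, 1–5 larvae/well; 50 μg/cm^2 compound surface-applied (acetone:water 90:10), dried; 8 wells/treatment; 25° C, 14:10 L:D, 5–7 d; % mortality, mean of 8 wells.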

[3] = system: Yellow Fever Mosquito (Aedes aegypti, AEDSAE); settings: for YFM rating: Table ABC / ABC-DP rating
Procedure, shortened: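 Mortality after 3 days at room temperature is the read-out, scored well by well and converted to a rating. Test molecules came from 4000 ppm stocks in DMSO, further diluted in 90:10 water/acetone, and were exposed to roughly 1-day-old larvae suspended in liver-powder water.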

[4] = Beet Armyworm, Table ABC / ABC-DP rating, read-out: BAW rating
[5] = Cabbage Looper, Table ABC / ABC-DP rating, read-out: CL rating
[6] = Table ABC: Biological Results, species BAW, read-out: BAW
[7] = Table ABC: Biological Results, species CL, read-out: CL
[8] = Table ABC: Biological Results, species YFM

SMILES	pest or weed control at 50 µg/cm2 [1, 4]	pest or weed control at 50 µg/cm2 [2, 5]	YFM rating ([3]; Yellow Fever Mosquito)	pest or weed control at 50 µg/cm2 [1, 6]	pest or weed control at 50 µg/cm2 [2, 7]	YFM [3, 8]	other results
N#CCC(=O)N(CCF)c1c(F)ccc(NC(=O)c2cc(NC(=O)[C@H]3[C@H](c4ccc(F)c(C(F)(F)F)c4)C3(Cl)Cl)ccc2Cl)c1F [F1823, 2-Chloro-N-(3-(2-cyano-N-(2-fluoroethyl)acetamido)-2,4-difluorophenyl)-5-((1R,3R)-2,2-dichloro-3-(4-fluoro-3-(trifluoromethyl)phenyl)cyclopropane-1-carboxamido)benzamide]	50 to 100%	50 to 100%	A (80–100)				
O=C(Nc1cc(F)c(F)c(Br)c1)c1cc(NC(=O)[C@H]2[C@H](c3cc(Cl)cc(Cl)c3)C2(Cl)Cl)ccc1Cl (relative stereo) [DP11, trans-N-(3-Bromo-4,5-difluorophenyl)-2-chloro-5-(2,2-dichloro-3-(3,5-dichlorophenyl)cyclopropane-1-carboxamido)benzamide]	50 to 100%	50 to 100%	A (80–100)				mortality at 50 µg/cm2 ([1]; 168 h, second instar larvae, 50 μg/cm^2 of test molecule on artificial diet, 25° C., five to seven days, average of eight wells, read-out: BAW % Control (or Mortality) rating): 50 to 100%; mortality at 50 µg/cm2 ([2]; 168 h, second instar larvae, 50 μg/cm^2 of test molecule on artificial diet, 25° C., five to seven days, average of eight wells, read-out: CL % Control (or Mortality) rating): 50 to 100%; YFM % Control (or Mortality) rating ([3]; about 1 day-old larvae, 4000 ppm master solution diluted with 90:10 water/acetone, 15 μL per well plus 220 μL larval mixture, 3 days, mortality): A (80–100)
O=C(NNc1ccncn1)c1cc(NC(=O)[C@H]2[C@H](c3cc(Cl)cc(Cl)c3)C2(Cl)Cl)ccc1Cl (relative stereo) [F2509, trans-2,2-Dichloro-N-(4-chloro-3-(2-(pyrimidin-4-yl)hydrazine-1-carbonyl)phenyl)-3-(3,5-dichlorophenyl)cyclopropane-1-carboxamide]	50 to 100%	50 to 100%	A (80–100)				
CC1(C(=O)Nc2c(F)ccc(NC(=O)c3cc(NC(=O)[C@H]4[C@H](c5ccc(F)c(C(F)(F)F)c5)C4(Cl)Cl)ccc3Cl)c2F)CC1 [F1362, 2-Chloro-5-((1R,3R)-2,2-dichloro-3-(4-fluoro-3-(trifluoromethyl)phenyl)cyclopropane-1-carboxamido)-N-(2,4-difluoro-3-(1-methylcyclopropane-1-carboxamido)phenyl)benzamide]				50 to 100%	50 to 100%	A (80–100)	
Cc1cc(NCc2ccc([N+](=O)[O-])cc2)ccc1NC(=O)c1cc(NC(=O)[C@H]2[C@H](c3cc(Cl)cc(Cl)c3)C2(Cl)Cl)ccc1Cl (relative stereo) [F1166, trans-2-Chloro-5-(2,2-dichloro-3-(3,5-dichlorophenyl)cyclopropane-1-carboxamido)-N-(2-methyl-4-((4-nitrobenzyl)amino)phenyl)benzamide]				50 to 100%	50 to 100%	A (80–100)	
O=C1CC(C(=O)Nc2c(F)ccc(NC(=O)c3cc(NC(=O)[C@H]4[C@H](c5ccc(F)c(C(F)(F)F)c5)C4(Cl)Cl)ccc3Cl)c2F)C1 [F1303, 2-Chloro-5-((1R,3R)-2,2-dichloro-3-(4-fluoro-3-(trifluoromethyl)phenyl)cyclopropane-1-carboxamido)-N-(2,4-difluoro-3-(3-oxocyclobutane-1-carboxamido)phenyl)benzamide]				50 to 100%	50 to 100%	A (80–100)	
CC(C)(C)CCCC(=O)Nc1c(F)ccc(NC(=O)c2cc(NC(=O)[C@H]3[C@H](c4ccc(F)c(C(F)(F)F)c4)C3(Cl)Cl)ccc2Cl)c1F [F1856, 2-Chloro-5-((1R,3R)-2,2-dichloro-3-(4-fluoro-3-(trifluoromethyl)phenyl)cyclopropane-1-carboxamido)-N-(3-(5,5-dimethylhexanamido)-2,4-difluorophenyl)benzamide]	50 to 100%	50 to 100%	B (More than 0 – Less than 80)				
O=C(Nc1ccc(F)c(NC(=O)C2CC2)c1F)c1cc(NC(=O)[C@H]2[C@H](c3ccc(F)c(C(F)(F)F)c3)C2(Cl)Cl)ccc1Cl [F1264, 2-Chloro-N-(3-(cyclopropanecarboxamido)-2,4-difluorophenyl)-5-((1R,3R)-2,2-dichloro-3-(4-fluoro-3-(trifluoromethyl)phenyl)cyclopropane-1-carboxamido)benzamide]				50 to 100%	50 to 100%	A (80–100)	
O=C(Nc1ccc(F)cc1F)c1cc(NC(=O)[C@H]2[C@@H](c3cc(F)cc(Br)c3F)C2(Cl)Cl)ccc1Cl (relative stereo) [F1094, cis-5-(3-(3-Bromo-2,5-difluorophenyl)-2,2-dichlorocyclopropane-1-carboxamido)-2-chloro-N-(2,4-difluorophenyl)benzamide]				50 to 100%	50 to 100%	A (80–100)	
CC(=O)N(C)NC(=O)c1cc(NC(=O)[C@H]2[C@H](c3cc(Cl)cc(Cl)c3)C2(Cl)Cl)ccc1Cl (relative stereo) [F2522, trans-N-(3-(2-Acetyl-2-methylhydrazine-1-carbonyl)-4-chlorophenyl)-2,2-dichloro-3-(3,5-dichlorophenyl)cyclopropane-1-carboxamide]	50 to 100%	50 to 100%	A (80–100)				
Cc1cc(NCc2ccccc2)ccc1NC(=O)c1cc(NC(=O)[C@H]2[C@H](c3cc(Cl)cc(Cl)c3)C2(Cl)Cl)ccc1Cl (relative stereo) [F1176, trans-N-(4-(Benzylamino)-2-methylphenyl)-2-chloro-5-(2,2-dichloro-3-(3,5-dichlorophenyl)cyclopropane-1-carboxamido)benzamide]				50 to 100%	50 to 100%	A (80–100)	
Cc1c(N)ccc(NC(=O)c2cc(NC(=O)[C@H]3[C@H](c4cc(Cl)cc(Cl)c4)C3(Cl)Cl)ccc2Cl)c1C (relative stereo) [F1229, trans-N-(4-amino-2,3-dimethylphenyl)-2-chloro-5-(2,2-dichloro-3-(3,5-dichlorophenyl)cyclopropane-1-carboxamido)benzamide]				50 to 100%	50 to 100%	A (80–100)	
CC(C#N)C(=O)Nc1c(F)ccc(NC(=O)c2cc(NC(=O)[C@H]3[C@H](c4ccc(F)c(C(F)(F)F)c4)C3(Cl)Cl)ccc2Cl)c1F (stereo partly drawn) [F1755, 2-Chloro-N-(3-(2-cyanopropanamido)-2,4-difluorophenyl)-5-((1R,3R)-2,2-dichloro-3-(4-fluoro-3-(trifluoromethyl)phenyl)cyclopropane-1-carboxamido)benzamide]							pest or weed control at 50 µg/cm2 ([1]; Beet Armyworm, rating class, read-out: BAW): 50 to 100%; pest or weed control at 50 µg/cm2 ([2]; Cabbage Looper, rating class, read-out: CL): 50 to 100%; YFM ([3]; Yellow Fever Mosquito, rating class): B (More than 0 – Less than 80)
O=C(NNc1ccccn1)c1cc(NC(=O)[C@H]2[C@H](c3cc(Cl)cc(Cl)c3)C2(Cl)Cl)ccc1Cl (relative stereo) [F2502, trans-2,2-dichloro-N-(4-chloro-3-(2-(pyridin-2-yl)hydrazine-1-carbonyl)phenyl)-3-(3,5-dichlorophenyl)cyclopropane-1-carboxamide]	50 to 100%	50 to 100%	A (80–100)				
CCN(C(=O)COC(F)(F)F)c1c(F)ccc(NC(=O)c2cc(NC(=O)[C@H]3[C@H](c4ccc(F)c(C(F)(F)F)c4)C3(Cl)Cl)ccc2Cl)c1F [F1789, 2-Chloro-5-((1R,3R)-2,2-dichloro-3-(4-fluoro-3-(trifluoromethyl)phenyl)cyclopropane-1-carboxamido)-N-(3-(N-ethyl-2-(trifluoromethoxy)acetamido)-2,4-difluorophenyl)benzamide]	50 to 100%	50 to 100%	A (80–100)				
CC(F)(F)CNC(=O)c1cc(NC(=O)C2C(c3cc(Cl)cc(Cl)c3)C2(Cl)Cl)cc(F)c1Cl (stereo not drawn) [F2087]	50 to 100%	50 to 100%	A (80–100)				
N#CC1(C(=O)Nc2c(F)ccc(NC(=O)c3cc(NC(=O)[C@H]4[C@H](c5ccc(F)c(C(F)(F)F)c5)C4(Cl)Cl)ccc3Cl)c2F)CC1 [F1263, 2-Chloro-N-(3-(1-cyanocyclopropane-1-carboxamido)-2,4-difluorophenyl)-5-((1R,3R)-2,2-dichloro-3-(4-fluoro-3-(trifluoromethyl)phenyl)cyclopropane-1-carboxamido)benzamide]				50 to 100%	50 to 100%	A (80–100)	
Nc1c(F)ccc(NC(=O)c2cc(NC(=O)[C@H]3[C@@H](c4cc(Br)cc(S(F)(F)(F)(F)F)c4)C3(Cl)Cl)ccc2Cl)c1F (relative stereo) [F1043, cis-N-(3-Amino-2,4-difluorophenyl)-5-(3-(3-bromo-5-(pentafluoro-λ^6-sulfanyl)phenyl)-2,2-dichlorocyclopropane-1-carboxamido)-2-chlorobenzamide]				50 to 100%	50 to 100%	A (80–100)	
